Laboratory results: patent US12234230B2, “Substituted benzyl-triazole compounds for Cbl-b inhibition, and further uses thereof” (Nurix Therapeutics, Inc., priority 2019, dated 2025)
pIC50: −log10 of the molar value. Where two headings read alike, the source gives them in different places.

Experiments:
[1] = test system: primary human total T-cells; assay: Primary human total T-cell activation (IL-2 secretion, CD25 surface staining), Biological Example 2; details: fold change over baseline; for CD25 staining CD3/CD28 0.3 μM / IL-2 secretion CD3/CD28 0.3 μM: 0.3 μM inhibitor; for CD25 staining CD3/CD28 0.3 μM / IL-2 secretion CD3/CD28 0.3 μM / CD25 staining CD3/CD28 1 μM / IL-2 secretion CD3/CD28 1 μM: anti-CD3 and anti-CD28 co-stimulation; for CD25 staining CD3/CD28 1 μM / IL-2 secretion CD3/CD28 1 μM / CD25 staining CD3 1 μM / IL-2 secretion CD3 1 μM: 1 μM inhibitor; for CD25 staining CD3 1 μM / IL-2 secretion CD3 1 μM / CD25 staining CD3 3 μM / IL-2 secretion CD3 3 μM: anti-CD3 stimulation alone; for CD25 staining CD3 3 μM / IL-2 secretion CD3 3 μM: 3 μM inhibitor
[2] = target: Cbl-b (Homo sapiens (Human), UniProt Q13191); assay: Cbl-b displacement assay (Cbl-b inhibition assay), Biological Example 1; format: binding
Procedure: The ability of candidate compounds to displace a known inhibitor and thereby inhibit Cbl-b activity was measured by monitoring the interaction of Cbl-b with a fluorophore-labeled probe in the presence of the candidate compound.
Following the one hour incubation, the plates were read for TR-FRET signal at 520/620 nm using an Envision plate reader (Perkin Elmer).

[3] = 0.125 nM Cbl-b final concentration (Low), read-out: Cbl-b activity IC50 (Low)
[4] = read-out: IC50 values in the Cbl-b inhibition assay of Biological Example 1
[5] = 0.5 nM Cbl-b final concentration (High), read-out: Cbl-b activity IC50 (High)

Chain of Cbl-b (Q13191 36-427): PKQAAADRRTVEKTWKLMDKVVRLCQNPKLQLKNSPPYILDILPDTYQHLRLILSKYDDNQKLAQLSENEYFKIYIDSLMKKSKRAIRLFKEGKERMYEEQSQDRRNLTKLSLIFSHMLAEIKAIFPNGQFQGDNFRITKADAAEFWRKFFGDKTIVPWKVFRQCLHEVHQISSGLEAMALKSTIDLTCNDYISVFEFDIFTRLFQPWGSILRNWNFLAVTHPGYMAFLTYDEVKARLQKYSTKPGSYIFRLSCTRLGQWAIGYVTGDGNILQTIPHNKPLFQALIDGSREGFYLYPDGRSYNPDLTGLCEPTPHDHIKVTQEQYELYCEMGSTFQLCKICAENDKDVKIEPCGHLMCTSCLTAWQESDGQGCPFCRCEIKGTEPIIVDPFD

Compound: C[C@@H]1CN(Cc2cc3c(c(C(F)(F)F)c2)CN(c2cccc([C@H](c4nncn4C)C4CCC4)c2)C3=O)CCC1(F)F [Compound 1, 2-(3-((R)-cyclobutyl(4-methyl-4H-1,2,4-triazol-3-yl)methyl)phenyl)-6-(((R)-4,4-difluoro-3-methylpiperidin-1-yl)methyl)-4-(trifluoromethyl)isoindolin-1-one]
- CD25 staining CD3/CD28 0.3 μM [1]: B (B indicates 1.24-1.39 fold)
- IL-2 secretion CD3/CD28 0.3 μM [1]: B (B indicates 20-35 fold)
- CD25 staining CD3/CD28 1 μM [1]: B (B indicates 1.24-1.39 fold)
- IL-2 secretion CD3/CD28 1 μM [1]: B (B indicates 20-35 fold)
- CD25 staining CD3 1 μM [1]: A (A indicates >2.5 fold)
- IL-2 secretion CD3 1 μM [1]: A (A indicates >1.1 fold)
- CD25 staining CD3 3 μM [1]: A (A indicates >2.5 fold)
- IL-2 secretion CD3 3 μM [1]: A (A indicates >1.1 fold)
- pIC50 [2, 3]: > 8.30
- pIC50 [2, 4]: ≥ 8.30

Compound: C[C@@H]1CN(Cc2cc3c(c(C(F)(F)F)c2)CN(c2cccc([C@@H](c4nncn4C)C4CCC4)c2)C3=O)CCC1(F)F [Compound 2, 2-(3-((S)-cyclobutyl(4-methyl-4H-1,2,4-triazol-3-yl)methyl)phenyl)-6-(((R)-4,4-difluoro-3-methylpiperidin-1-yl)methyl)-4-(trifluoromethyl)isoindolin-1-one]
- IL-2 secretion CD3/CD28 0.3 μM [1]: A (A indicates >35 fold)
- IL-2 secretion CD3/CD28 1 μM [1]: A (A indicates >35 fold)
- CD25 staining CD3 1 μM [1]: A (A indicates >2.5 fold)
- IL-2 secretion CD3 1 μM [1]: A (A indicates >1.1 fold)
- CD25 staining CD3 3 μM [1]: A (A indicates >2.5 fold)
- IL-2 secretion CD3 3 μM [1]: B (B indicates 0.70-1.1 fold)
- pIC50 [2, 3]: < 7.00
- pIC50 [2, 4]: < 7.00

Compound: C[C@H]1CCCN(Cc2cc3c(c(C(F)(F)F)c2)CN(c2cccc([C@@H](c4nncn4C)C4CCC4)c2)C3=O)C1 [Compound 4, 2-(3-((S)-cyclobutyl(4-methyl-4H-1,2,4-triazol-3-yl)methyl)phenyl)-6-(((S)-3-methylpiperidin-1-yl)methyl)-4-(trifluoromethyl)isoindolin-1-one]
- pIC50 [2, 3]: > 8.30
- pIC50 [2, 4]: ≥ 8.30

Compound: C[C@@H]1CN(Cc2cc3c(c(C4CC4)n2)CN(c2cccc([C@@H](c4nncn4C)C4CCC4)c2)C3=O)CCC1(F)F [Compound 5, 2-(3-((S)-cyclobutyl(4-methyl-4H-1,2,4-triazol-3-yl)methyl)phenyl)-4-cyclopropyl-6-(((R)-4,4-difluoro-3-methylpiperidin-1-yl)methyl)-2,3-dihydro-1H-pyrrolo[3,4-c]pyridin-1-one]
- CD25 staining CD3/CD28 0.3 μM [1]: B (B indicates 1.24-1.39 fold)
- IL-2 secretion CD3/CD28 0.3 μM [1]: C (C indicates <20 fold)
- CD25 staining CD3/CD28 1 μM [1]: B (B indicates 1.24-1.39 fold)
- IL-2 secretion CD3/CD28 1 μM [1]: C (C indicates <20 fold)
- CD25 staining CD3 1 μM [1]: C (C indicates <1.5 fold)
- IL-2 secretion CD3 1 μM [1]: C (C indicates <0.70 fold)
- CD25 staining CD3 3 μM [1]: C (C indicates <1.5 fold)
- IL-2 secretion CD3 3 μM [1]: C (C indicates <0.70 fold)
- pIC50 [2, 3]: 7.00 to 7.70
- pIC50 [2, 4]: 7.00 to 7.70

Compound: C[C@H]1CCCN(Cc2cc3c(c(C4CC4)n2)CN(c2cccc([C@@H](c4nncn4C)C4CCC4)c2)C3=O)C1 [Compound 6, 2-(3-((S)-cyclobutyl(4-methyl-4H-1,2,4-triazol-3-yl)methyl)phenyl)-4-cyclopropyl-6-(((S)-3-methylpiperidin-1-yl)methyl)-2,3-dihydro-1H-pyrrolo[3,4-c]pyridin-1-one]
- pIC50 [2, 3]: 7.00 to 7.70
- pIC50 [2, 4]: 7.00 to 7.70

Compound: Cn1cnnc1C(c1cccc(N2Cc3c(cccc3C(F)(F)F)C2=O)c1)C1COC1 (centres unmarked) [Compound 7, 2-(3-((4-methyl-4H-1,2,4-triazol-3-yl)(oxetan-3-yl)methyl)phenyl)-4-(trifluoromethyl)isoindolin-1-one]
- pIC50 [2, 3]: < 7.00
- pIC50 [2, 4]: < 7.00

Compound: Cn1cnnc1[C@@H](c1cccc(N2Cc3c(cccc3C(F)(F)F)C2=O)c1)C1CCC1 [Compound 8, (R)-2-(3-(cyclobutyl(4-methyl-4H-1,2,4-triazol-3-yl)methyl)phenyl)-4-(trifluoromethyl)isoindolin-1-one]
- pIC50 [2, 5]: 7.70 to 8.30
- pIC50 [2, 4]: 7.70 to 8.30

Compound: Cn1cnnc1[C@H](c1cccc(N2Cc3c(cccc3C(F)(F)F)C2=O)c1)C1CCC1 [Compound 9, (S)-2-(3-(cyclobutyl(4-methyl-4H-1,2,4-triazol-3-yl)methyl)phenyl)-4-(trifluoromethyl)isoindolin-1-one]
- pIC50 [2, 5]: < 7.00

Compound: Cn1cnnc1C1(c2cccc(N3Cc4c(cccc4C(F)(F)F)C3=O)c2)CCOC1 (centres unmarked) [Compound 10, 2-(3-(3-(4-methyl-4H-1,2,4-triazol-3-yl)tetrahydrofuran-3-yl)phenyl)-4-(trifluoromethyl)isoindolin-1-one]
- pIC50 [2, 3]: < 7.00

Compound: Cn1cnnc1C1(c2cccc(N3Cc4c(cccc4C(F)(F)F)C3=O)c2)CCCC1 [Compound 11, 2-(3-(1-(4-methyl-4H-1,2,4-triazol-3-yl)cyclopentyl)phenyl)-4-(trifluoromethyl)isoindolin-1-one]
- IL-2 secretion CD3/CD28 0.3 μM [1]: C (C indicates <20 fold)
- IL-2 secretion CD3/CD28 1 μM [1]: C (C indicates <20 fold)
- CD25 staining CD3 1 μM [1]: C (C indicates <1.5 fold)
- CD25 staining CD3 3 μM [1]: C (C indicates <1.5 fold)
- pIC50 [2, 5]: < 7.00

Compound: Cc1cc(C(=O)Nc2cccc([C@@H](c3nncn3C)C3CCC3)c2)nc(C2CC2)n1 [Compound 12, (S)—N-(3-(cyclobutyl(4-methyl-4H-1,2,4-triazol-3-yl)methyl)phenyl)-2-cyclopropyl-6-methylpyrimidine-4-carboxamide]
- IL-2 secretion CD3/CD28 0.3 μM [1]: C (C indicates <20 fold)
- IL-2 secretion CD3/CD28 1 μM [1]: C (C indicates <20 fold)
- CD25 staining CD3 1 μM [1]: C (C indicates <1.5 fold)
- CD25 staining CD3 3 μM [1]: C (C indicates <1.5 fold)
- pIC50 [2, 5]: < 7.00

Compound: Cc1cc(C(=O)Nc2cccc([C@H](c3nncn3C)C3CCC3)c2)nc(C2CC2)n1 [Compound 13, (R)—N-(3-(cyclobutyl(4-methyl-4H-1,2,4-triazol-3-yl)methyl)phenyl)-2-cyclopropyl-6-methylpyrimidine-4-carboxamide]
- IL-2 secretion CD3/CD28 0.3 μM [1]: C (C indicates <20 fold)
- IL-2 secretion CD3/CD28 1 μM [1]: C (C indicates <20 fold)
- CD25 staining CD3 1 μM [1]: C (C indicates <1.5 fold)
- CD25 staining CD3 3 μM [1]: C (C indicates <1.5 fold)
- pIC50 [2, 5]: < 7.00

Compound: CC(c1cc2c(c(C(F)(F)F)c1)CN(c1cccc([C@@H](c3nncn3C)C3CCC3)c1)C2=O)N1CCC(F)(F)[C@H](C)C1 (stereo partly drawn) [Compound 14, 2-(3-((S)-cyclobutyl(4-methyl-4H-1,2,4-triazol-3-yl)methyl)phenyl)-6-(1-((R)-4,4-difluoro-3-methylpiperidin-1-yl)ethyl)-4-(trifluoromethyl)isoindolin-1-one]
- CD25 staining CD3/CD28 0.3 μM [1]: B (B indicates 1.24-1.39 fold)
- IL-2 secretion CD3/CD28 0.3 μM [1]: C (C indicates <20 fold)
- IL-2 secretion CD3/CD28 1 μM [1]: C (C indicates <20 fold)
- CD25 staining CD3 1 μM [1]: C (C indicates <1.5 fold)
- IL-2 secretion CD3 1 μM [1]: C (C indicates <0.70 fold)
- CD25 staining CD3 3 μM [1]: C (C indicates <1.5 fold)
- IL-2 secretion CD3 3 μM [1]: C (C indicates <0.70 fold)
- pIC50 [2, 3]: 7.00 to 7.70
- pIC50 [2, 4]: 7.00 to 7.70

Compound: C[C@@H]1CN(Cc2cc3c(c(C(F)(F)F)c2)CN(c2cccc([C@@H](c4nncn4C)C4CCC4)c2)C3=O)CCO1 [Compound 15, 2-(3-((S)-cyclobutyl(4-methyl-4H-1,2,4-triazol-3-yl)methyl)phenyl)-6-(((R)-2-methylmorpholino)methyl)-4-(trifluoromethyl)isoindolin-1-one]
- CD25 staining CD3/CD28 0.3 μM [1]: B (B indicates 1.24-1.39 fold)
- IL-2 secretion CD3/CD28 0.3 μM [1]: C (C indicates <20 fold)
- CD25 staining CD3/CD28 1 μM [1]: B (B indicates 1.24-1.39 fold)
- IL-2 secretion CD3/CD28 1 μM [1]: C (C indicates <20 fold)
- CD25 staining CD3 1 μM [1]: C (C indicates <1.5 fold)
- IL-2 secretion CD3 1 μM [1]: C (C indicates <0.70 fold)
- CD25 staining CD3 3 μM [1]: C (C indicates <1.5 fold)
- IL-2 secretion CD3 3 μM [1]: C (C indicates <0.70 fold)
- pIC50 [2, 3]: 7.70 to 8.30
- pIC50 [2, 4]: 7.70 to 8.30

Compound: CC[C@@H]1CN(Cc2cc3c(c(C(F)(F)F)c2)CN(c2cccc([C@]4(c5nncn5C)C[C@@H](C)C4)c2)C3=O)CCO1 [Compound 28, 6-(((R)-2-ethylmorpholino)methyl)-2-(3-((1s,3S)-3-methyl-1-(4-methyl-4H-1,2,4-triazol-3-yl)cyclobutyl)phenyl)-4-(trifluoromethyl)isoindolin-1-one]
- pIC50 [2, 3]: 7.70 to 8.30

Compound: Cn1cnnc1[C@]1(c2cccc(N3Cc4c(cc(CN5CCO[C@H](CC#N)C5)cc4C(F)(F)F)C3=O)c2)C[C@H](C)C1 [Compound 30, 2-((R)-4-((2-(3-((1s,3S)-3-methyl-1-(4-methyl-4H-1,2,4-triazol-3-yl)cyclobutyl)phenyl)-3-oxo-7-(trifluoromethyl)isoindolin-5-yl)methyl)morpholin-2-yl)acetonitrile]
- pIC50 [2, 3]: 7.70 to 8.30
